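The compound was tested at five concentrations on cells cultured in 96-well plates, with a 48-hour exposure period. At the TGI there is no net growth.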
Legend:
Assay in all cases: NCI anticancer screen, dose series, 48 h
HOP-92 NSCLC = system: HOP-92 NSCLC
HS 578T breast = system: HS 578T breast
K-562 leukemia = system: K-562 leukemia
UACC-62 melanoma = system: UACC-62 melanoma
HCT-15 colon = system: HCT-15 colon
SK-MEL-2 melanoma = system: SK-MEL-2 melanoma
OVCAR-4 ovarian = system: OVCAR-4 ovarian
MDA-N = system: MDA-N
SK-MEL-28 melanoma = system: SK-MEL-28 melanoma
BT-549 breast = system: BT-549 breast
OVCAR-8 ovarian = system: OVCAR-8 ovarian
KM12 colon = system: KM12 colon
MOLT-4 leukemia = system: MOLT-4 leukemia
HT29 colon = system: HT29 colon
UACC-257 melanoma = system: UACC-257 melanoma
PC-3 prostate = system: PC-3 prostate
MCF7 breast = system: MCF7 breast
RPMI-8226 leukemia = system: RPMI-8226 leukemia
IGROV1 ovarian = system: IGROV1 ovarian
HL-60(TB) leukemia = system: HL-60(TB) leukemia
786-0 renal = system: 786-0 renal
SK-MEL-5 melanoma = system: SK-MEL-5 melanoma
A549 NSCLC = system: A549 NSCLC
T-47D breast = system: T-47D breast
NCI-H23 lung = system: NCI-H23 lung
ACHN renal = system: ACHN renal
MALME-3M melanoma = system: MALME-3M melanoma
M14 melanoma = system: M14 melanoma
SF-295 CNS = system: SF-295 CNS
LOX IMVI melanoma = system: LOX IMVI melanoma
SW-620 colon = system: SW-620 colon
NCI-H522 lung = system: NCI-H522 lung
CAKI-1 renal = system: CAKI-1 renal
HOP-62 NSCLC = system: HOP-62 NSCLC
OVCAR-5 ovarian = system: OVCAR-5 ovarian
TK-10 renal = system: TK-10 renal
HCT-116 colon = system: HCT-116 colon
RXF 393 renal = system: RXF 393 renal
SF-268 CNS = system: SF-268 CNS
NCI/ADR-RES ovarian = system: NCI/ADR-RES ovarian
COLO 205 colon = system: COLO 205 colon
MDA-MB-231 breast = system: MDA-MB-231 breast
SNB-19 CNS = system: SNB-19 CNS
MDA-MB-435 = system: MDA-MB-435
SN12C renal = system: SN12C renal
DU-145 prostate = system: DU-145 prostate
A498 renal = system: A498 renal
OVCAR-3 ovarian = system: OVCAR-3 ovarian
SF-539 CNS = system: SF-539 CNS
UO-31 renal = system: UO-31 renal
NCI-H226 lung = system: NCI-H226 lung
CCRF-CEM leukemia = system: CCRF-CEM leukemia
EKVX NSCLC = system: EKVX NSCLC
U251 CNS = system: U251 CNS
SNB-75 CNS = system: SNB-75 CNS
SK-OV-3 ovarian = system: SK-OV-3 ovarian
HCC-2998 colon = system: HCC-2998 colon
SR leukemia = system: SR leukemia
NCI-H460 lung = system: NCI-H460 lung

C1CN(c2nc3c(nnc4nc(N5CCOCC5)sc43)s2)CCO1
TGI (HOP-92 NSCLC): > 100 µM | TGI (HS 578T breast): > 100 µM | TGI (K-562 leukemia): > 100 µM | TGI (UACC-62 melanoma): > 100 µM | TGI (HCT-15 colon): > 100 µM | TGI (SK-MEL-2 melanoma): > 100 µM | TGI (OVCAR-4 ovarian): > 100 µM | TGI (MDA-N): > 100 µM | TGI (SK-MEL-28 melanoma): > 100 µM | TGI (BT-549 breast): > 100 µM | TGI (OVCAR-8 ovarian): > 100 µM | TGI (KM12 colon): > 100 µM | TGI (MOLT-4 leukemia): > 100 µM | TGI (HT29 colon): > 100 µM | TGI (UACC-257 melanoma): > 100 µM | TGI (PC-3 prostate): > 100 µM | TGI (MCF7 breast): > 100 µM | TGI (RPMI-8226 leukemia): > 100 µM | TGI (IGROV1 ovarian): > 100 µM | TGI (HL-60(TB) leukemia): > 100 µM | TGI (786-0 renal): > 100 µM | TGI (SK-MEL-5 melanoma): > 100 µM | TGI (A549 NSCLC): > 100 µM | TGI (T-47D breast): > 100 µM | TGI (NCI-H23 lung): > 100 µM | TGI (ACHN renal): > 100 µM | TGI (MALME-3M melanoma): > 100 µM | TGI (M14 melanoma): > 100 µM | TGI (SF-295 CNS): > 100 µM | TGI (LOX IMVI melanoma): > 100 µM | TGI (SW-620 colon): > 100 µM | TGI (NCI-H522 lung): > 100 µM | TGI (CAKI-1 renal): > 100 µM | TGI (HOP-62 NSCLC): > 100 µM | TGI (OVCAR-5 ovarian): > 100 µM | TGI (TK-10 renal): > 100 µM | TGI (HCT-116 colon): > 100 µM | TGI (RXF 393 renal): > 100 µM | TGI (SF-268 CNS): > 100 µM | TGI (NCI/ADR-RES ovarian): > 100 µM | TGI (COLO 205 colon): > 100 µM | TGI (MDA-MB-231 breast): > 100 µM | TGI (SNB-19 CNS): > 100 µM | TGI (MDA-MB-435): > 100 µM | TGI (SN12C renal): > 100 µM | TGI (DU-145 prostate): > 100 µM | TGI (A498 renal): > 100 µM | TGI (OVCAR-3 ovarian): > 100 µM | TGI (SF-539 CNS): > 100 µM | TGI (UO-31 renal): > 100 µM | TGI (NCI-H226 lung): > 100 µM | TGI (CCRF-CEM leukemia): > 100 µM | TGI (EKVX NSCLC): > 100 µM | TGI (U251 CNS): > 100 µM

CN1CCc2cc(N)cc3c2C1Cc1ccc(O)c(O)c1-3 (configuration not stated)
TGI (HOP-92 NSCLC): > 100 µM | TGI (HS 578T breast): > 100 µM | TGI (K-562 leukemia): 85.3 µM | TGI (UACC-62 melanoma): 70.4 µM | TGI (HCT-15 colon): > 100 µM | TGI (SK-MEL-2 melanoma): > 100 µM | TGI (OVCAR-4 ovarian): > 100 µM | TGI (MDA-N): > 100 µM | TGI (SK-MEL-28 melanoma): > 100 µM | TGI (BT-549 breast): > 100 µM | TGI (SNB-75 CNS): > 100 µM | TGI (OVCAR-8 ovarian): > 100 µM | TGI (KM12 colon): > 100 µM | TGI (MOLT-4 leukemia): 39.9 µM | TGI (HT29 colon): > 100 µM | TGI (UACC-257 melanoma): 52.9 µM | TGI (PC-3 prostate): > 100 µM | TGI (RPMI-8226 leukemia): 66.4 µM | TGI (IGROV1 ovarian): > 100 µM | TGI (HL-60(TB) leukemia): 98.7 µM | TGI (786-0 renal): > 100 µM | TGI (SK-MEL-5 melanoma): 46.5 µM | TGI (A549 NSCLC): > 100 µM | TGI (T-47D breast): > 100 µM | TGI (NCI-H23 lung): > 100 µM | TGI (ACHN renal): 58.4 µM | TGI (MALME-3M melanoma): 88.2 µM | TGI (M14 melanoma): > 100 µM | TGI (SF-295 CNS): > 100 µM | TGI (LOX IMVI melanoma): 35 µM | TGI (SW-620 colon): > 100 µM | TGI (NCI-H522 lung): > 100 µM | TGI (SK-OV-3 ovarian): > 100 µM | TGI (CAKI-1 renal): > 100 µM | TGI (HCC-2998 colon): 33.1 µM | TGI (SR leukemia): > 100 µM | TGI (HOP-62 NSCLC): > 100 µM | TGI (OVCAR-5 ovarian): > 100 µM | TGI (TK-10 renal): > 100 µM | TGI (HCT-116 colon): > 100 µM | TGI (RXF 393 renal): > 100 µM | TGI (SF-268 CNS): > 100 µM | TGI (NCI/ADR-RES ovarian): > 100 µM | TGI (COLO 205 colon): > 100 µM | TGI (MDA-MB-231 breast): > 100 µM | TGI (SNB-19 CNS): > 100 µM | TGI (MDA-MB-435): > 100 µM | TGI (SN12C renal): > 100 µM | TGI (DU-145 prostate): > 100 µM | TGI (NCI-H460 lung): > 100 µM | TGI (A498 renal): > 100 µM | TGI (OVCAR-3 ovarian): 72.8 µM | TGI (SF-539 CNS): > 100 µM | TGI (UO-31 renal): 95.9 µM | TGI (NCI-H226 lung): 82.8 µM | TGI (CCRF-CEM leukemia): 37.2 µM | TGI (EKVX NSCLC): > 100 µM | TGI (U251 CNS): > 100 µM
